From patent publication US12544451B2, “Intracellular delivery compositions” (BIOND BIOLOGICS LTD., priority 2021, dated 2026)

Assays:
A375 cells [1] = experiment: Internalization of PEI-modified IgG (4.5 PEIs) in the presence of endocytosis inhibitors; format: cell-based; conditions: overnight, PEI-modified mouse IgG (4.5 PEIs)
Experimental: Cationized moieties are thought to internalize using a natural endocytosis mechanism. The two relevant endocytosis mechanisms are caveolin- and clathrin-mediated endocytosis. The exact mechanism of internalization was elucidated by performing the internalization of PEI-modified IgG in the presence of known specific endocytosis inhibitors. A375 cells were incubated overnight with PEI-modified mouse IgG (4.5 PEIs) in the presence of Clathrin inhibitors (Amantadine or Chlorpromazine) or a Caveolin inhibitor (Genistein). […] This corroborates that Caveolin-mediated endocytosis is exploited by the PEI-modified payloads for internalization as inhibition of Clathrin-mediated endocytosis caused a compensatory increase in Caveolin-mediated endocytosis in the cells.

[2] = Zeta potential measurement (Zeta Sizer Ultra); format: physicochemical; conditions: alternative carriers and HSA before and after PEI modification; STD in separate column
Experimental: Zeta potential measurements were preformed using Zeta Sizer Ultra (Malvern Instruments). Samples' buffers were exchanged to 1 mM NaCl at 1 mg/mL protein concentration. 20 μL from each sample was loaded in zeta cells (DTS1070), five repeats for each sample were measured and the mean zeta potential in mV was obtained for each repeat. The average for the five measurements is reported with the standard deviation. The measurements were performed under the following conditions: temperature 25° C.; run numbers for each repeat 10-40; equilibration time: 60 seconds, without pause after sub runs; 60 seconds pause between repeats; voltage was selected automatic and monomodal analysis method was used in the data processing.
Zeta potential measurements were preformed using Zeta Sizer Ultra (Malvern Instruments), samples buffer was exchanged to 1 mM NaCl at 1 mg/mL protein concentration. 20 μL from each sample were loaded in zeta cells (DTS1070), five repeats for each sample were measured and the mean zeta potential in mV was obtained.

A375 cells [3] = experiment: Intracellular BRAF inhibition: Annexin V apoptosis assay in A375 cells (IncuCyte, CellTiter-Glo normalisation); format: cell-based; conditions: 1 μM or 3 μM agent, BRAF inhibitor at 10 μM
Experimental: FIGS. 42A-42D. A375 cells were seeded in 96 plate wells for 24 h to allow cells adherence (1500 cells/well). To each well a sample of the tested agent was added at the desired concentration (42A-42B) 1 μM; (42C-42D) […], except BRAF inhibitor, PF-04880594 that was added at 10 μM. (42A, 42C) Red area obtained from the Annexin V red reagent, a commonly used fluorescent dye identifying apoptotic cells, monitored in IncuCyte®. (42B, 42D) Red area normalized to the value obtained by CellTiter-Glo corresponding to intact cells.
Random modification was achieved by reaction of 1C5-Hel20-LC with PEI1800 in the presence of EDC, to give 1C5-Hel20-LC-r-C(O)—NH-PEI1800 (S8). The different constructs of payload conjugated directly to PEI were evaluated for their ability to penetrate A375 cells and induce apoptosis following BRAF inhibition. […]
1C5-Hel20-LC-HSA-PEI (S5C)×n conjugates were prepared by reduction of 1C5-Hel20-LC and activation with 2,2′-Dithiobis(5-nitropyridine) followed by conjugation to HSA-PEI×n. Intracellular BRAF inhibition by the different constructs was evaluated by a functional assay in A375 cells. The different conjugates were incubated with A375 cells in the presence of Annexin V red reagent, for 6 days, while monitoring fluorescence in IncuCyte® to identify apoptotic cells (FIG. 42A, C). […]

Molecule | effect on internalization of PEI-modified IgG (A375 cells [1]) | also measured
CN(C)CCCN1c2ccccc2Sc2ccc(Cl)cc21 [Chlorpromazine] | resulted in increased internalization | 
Fibrinogen |  | Zeta potential (mV) [2]: −1.4 mV
O=c1c(-c2ccc(O)cc2)coc2cc(O)cc(O)c12 [Genistein] | inhibited the internalization of PEI-modified IgG | 
N#CCCNc1nccc(-c2cn(CC(F)F)nc2-c2cnc3[nH]ccc3c2)n1 [PF-04880594, reference compound] |  | apoptosis (Annexin V red signal) (A375 cells [3]): highly potent cell killer
